Data from patent US5447957A, “Anti-inflammatory compounds” (SmithKline Beecham Corp., priority 1994, dated 1995).
Like-named read-outs stand apart in the source and are kept apart here. One block for each molecule: values may come before it.

Tests used:
CoA-IT = assay: Assay (b): CoA-IT activity in U937 cell microsomes; assay type: biochemical, human; conditions: for inhibition of CoA-IT activity in the microsomal CoA-IT assay: generally at 50 μM or less
Text: Assay (b): CoA-IT Activity
The following is a method to measure CoA-IT activity and the effects of compounds on CoA-IT activity. The assay is based upon mixing cellular material containing CoA-IT activity with a stable lyso phospholipid such as […] and measuring the production of phospholipid product such as […] occurring in the absence of added CoA or CoA-fatty acids.
Any inflammatory cell that contains high levels of CoA-IT activity can be used, such as neutrophils, macrophages or cell lines such as U937 cells. […] Cells were grown without differentiation (basal state) by any agent, such as dimethyl sulfoxide. As used herein, "inflammatory cells" include, but are not limited to neutrophils, macrophages, monocytes, lymphocytes, eosinophils, basophils, and mast cells.
Microsomes were prepared using standard techniques. In this case, cells were washed with a buffer of 250 mM sucrose, 10 mM Tris, 1 mM EGTA, 1 mM MgCl2, pH 7.4 and ruptured by N2 cavitation (750 psi, 10 minutes). The ruptured cells were centrifuged 1000× g, 5 minutes. The resulting supernatant was centrifuged at 20,000×g,~20 minutes. Microsomes were prepared from this supernatant by centrifugation at 100,000× g, 60 minutes. The resulting pellet was washed once with assay buffer (150 mM NaCl, 10 mM Na2 KPO4, 1 mM EGTA, pH 7.4), recentrifuged and the pellet resuspended in assay buffer (4-20 mg protein/ml) and was stored at -80° C. until assayed.
CoA-IT activity was measured in 1.5 ml centrifuge tubes in a total volume of 100 ul. Microsomes were diluted in assay buffer to the desired protein concentration (6-20 ug/tube). The reaction was initiated by addition of [3H] 1-alkyl-2-lyso-sn-glycero-3-phosphocholine (GPC)(~0.1 uCi/tube) and 1 μM final cold 1-alkyl-2-lyso-GPC in assay buffer with 0.25 mg/ml fatty acid-poor bovine serumalbumin (BSA) (Calbiochem, La Jolla, Calif.). [3H]1-alkyl-2-lyso-GPC, approximately 50 Ci/mmol, was from NEN-Dupont (Boston, Mass.) and cold 1-alkyl-2-lyso-GPC was from Biomol (Plymouth Meeting, Penn.). Microsomes were pretreated with desired agents for the desired time (10 minutes) before the addition of [3H]1-alkyl-2-lyso-GPC. The reaction was run for the desired time (10 minutes) at 37° C. The reaction was stopped and the lipids extracted by addition of 100 ul of chloroform:methanol (1:2, v/v) followed by 100 ul of chloroform and 100 ul of 1M KCI. The samples were vortexed and centrifuged at high speed in a microfuge for 2-3 minutes. An aliquot of the chloroform-extracted materials were separated, usually by TLC in chloroform/methanol/acetic acid/water (50:25:8:4, v/v), visualized by radioscanning (Bioscan) and the product, [3H] 1-alkyl-2-acyl-GPC, was scraped and quantified by liquid scintillation spectroscopy. […] Other methods can be used to separate substrate from product, including but not limited to column chromatography, affinity chromatography and post reaction derivitization.

human monocytes = assay: Assay (f): stimulated eicosanoid (PGE2, LTC4) release by human monocytes; assay type: cell-based; conditions: Monocyte, 0.25 h, A23187 1 μM, 15 min
Description: Assay (f): Measurement of stimulated eicosanoid release by human monocytes.
Leukocyte-rich leukopaks obtained from Biological Specialties (Lansdale, Pa.) were collected from male volunteers who were not taking anti-inflammatory drugs. Leukopaks were centrifuged (90× g for 15 min) twice to remove the platelet-rich plasma. The cell pellet was washed by centrifugation and resuspended in HBSS without Ca^2+ or Mg^2+. Histopaque 1077 was layered under the cell suspension and centrifuged at 400× g for 30 min to obtain the buffy coat. The interfacial buffy coat, containing monocytes and lymphocytes, was removed and saved. The buffy coat was washed twice with HBSS without Ca^2+ or Mg^2+ by centrifugation. The cell pellet (4-6×10^8 cells/30 mls) was resuspended in iso-osmotic media (RPMI-1640, 10% heat inactivated fetal bovine serum (FBS), 0.2 mM L-glutamine, 2.5 mM HEPES) and layered over an equal volume of 46% Percol mixture (10X PBS/Percol; 9.25/0.75) and 54% iso-osmotic media and centrifuged for 30 min at 1000× g (Marshall and Roshak, Biochem. Cell Biol. 71: 331-339, 1993). The monocyte population located at the interface of the Percoll gradient was removed and washed twice in HBSS without Ca^2+ or Mg^2+.
Monocytes (5×10^6 /ml) were incubated as a suspension in serum-free RPMI- 1640 medium containing the vehicle DMSO (<1%) or drug for 30 min at […] after which vehicle or stimuli was added for the indicated time. The stimulating agent is solubilized in DMSO and appropriate vehicle controls were included in all experiments. The amount of stimuli was chosen from the linear portion of a concentration versus product curve usually representing 60-80% maximal stimulation over the indicated incubation time at 37° C. (A23187, 1 μM,(15 min). The reaction was terminated by reduction of pH through addition of citric acid and centrifugation (10 min, 400× g, 4° C.). Cell viability was monitored before and after experiments using trypan blue exclusion. The cell-free media was decanted and stored at -70° C. until analyzed. Prostaglandin E2 and LTC4 were directly measured in cell-free media using enzyme immunoassay (EIA) kits purchased from Caymen Chemical Co. (Ann Arbor, Mich.). Sample or standard dilutions were made with appropriate media and analyzed in triplicate. Results were obtained by extrapolation from a standard curve prepared in the media and expressed as pg or ng/ml of sample.

[1] = system: Arachidonic acid induced ear inflammation; assay: Assay (h): Arachidonic acid induced ear inflammation (ear edema and MPO); assay type: in vivo, mouse; conditions: topical; doses dexamethasone 0.2, scalaradial 0.1, WY 50,295 0.3 (unit not given)
Description: (§1) Male Balb/c inbred mice were obtained from Charle River Breeding Laboratories (Kingston, N.Y.). Within a single experiment mice (22-25 g) were age-matched. These in vivo experiments typically involved use of 5-6 animals/group.
On the day of the assay, partially thawed ear tissues were minced and then homogenized (10% w/v) with a Tissumizer homogenizer (Tekmar Co.) in 50 mM phosphate buffer (pH 6) containing 0.5% HTAB. The tissue homogenates were taken through three cycles of freeze-thaw, followed by brief sonication (10 sec). The method of Bradley et al. was used with modifications as described. […] Supernatant MPO activity was quantified kinetically (change in absorbance measured over 3 min, sampled at 15-sec intervals) using a Beckman DU-7 spectrophotometer and a Kinetics Analysis package (Beckman Instruments, Inc.). One unit of MPO activity is defined as that degrading one micromole of peroxide per minute at 25° C.
Arachidonic acid is dissolved in acetone (1 mg/ear) to the left ear of BALB/c male mice. The thickness of both ears was measured with a constant pressure thickness guage 1 hour after treatment and the data expressed as the change in thickness between treated and untreated ears. Test compounds or vehicle are given at the time of AA applciation. The inflammatory cell infiltration is measured by MPO activity as described above in the TPA ear edema assay. After the edema measurements are made, the inflamed ears are removed and assayed for MPO activity.

[2] = system: TPA-induced Mouse Ear Inflammation; assay: Assay (g): TPA-induced Mouse Ear Inflammation (ear edema and MPO); assay type: in vivo; conditions: topical; doses dexamethasone 0.2, scalaradial 0.1, WY 50,295 0.3 (unit not given)
Text: The ability of compounds that inhibit CoA-IT and/or PLA2 to affect in vivo inflammatory responses may be assessed. Inflammatory responses are induced in the mouse ear by the topical application of a pro-inflammatory agent, such as 12-0-tetradecanoylphorbol 13-acetate (assay g). This produces an edematous response, as measured by increases in ear thickness, as well as increased inflammatory cellular infiltrate, as measured by increases in myeloperoxidase activity (as described in the methods). To further validate the mechanism of action inflammation induced by the direct adminstration of arachidonic acid can be used. In this case compounds altering arachidonic acid mobilization or liberation should be with our effect.
as §1
TPA (12-0-tetradecanoylphorbol 13-acetate) (Sigma Chemical Company) in acetone ([…]) was applied to the inner and outer surfaces of the left ear of BALB/c male mice. The thickness of both ears was then measured with a dial micrometer (Mitutoyo, Japan) at both 2 and 4 hours after treatment, and the data expressed as the change in thickness (10^-3 cm) between treated and untreated ears. […] After measuring the edema, the inflammed left ears were removed and stored at -70° C. until they were assayed for MPO (myeloperoxidase) activity where appropriate.
On the day of the assay, partially thawed ear tissues were minced and then homogenized (10% w/v) with a Tissumizer homogenizer (Tekmar Co.) in 50 mM phosphate buffer (pH 6) containing 0.5% HTAB. The tissue homogenates were taken through three cycles of freeze-thaw, followed by brief sonication (10 sec). The method of Bradley et al. was used with modifications as described. The appearance of a colored product from the MPO-dependent reaction of o-dianisidine (0.167 mg/ml; Sigma) and hydrogen peroxide (0.0005%; Sigma) was measured spectrophotometrically at 460 nm. Supernatant MPO activity was quantified kinetically (change in absorbance measured over 3 min, sampled at 15-sec intervals) using a Beckman DU-7 spectrophotometer and a Kinetics Analysis package (Beckman Instruments, Inc.). One unit of MPO activity is defined as that degrading one micromole of peroxide per minute at 25° C.
Statistical analysis was done using Student's "t" test. The ED50 are values which cause a 50% inhibition of the inflammatory response and are calculated by regression analysis of the dose response data.

- inhibition of CoA-IT activity in the microsomal CoA-IT assay (CoA-IT): inhibit CoA-IT activity
Compound: CCCCCCCCNC(=O)Nc1cc(C(F)(F)F)ccc1Oc1ccccc1C(=O)O [2-[2-[3-(Octyl)ureido]-4-trifluoromethylphenoxy]benzoic acid]

Compound: O=S1(=O)CCn2c1nc(-c1ccc(F)cc1)c2-c1ccncc1 [6-(4'-Fluorophenyl)-5-(4-pyridyl)2,3-dihydroimidzo-[2,1-b]thiazole-dioxide]
- effect on CoA-IT activity (CoA-IT; at concentrations up to 100 μM): no effect

Compound: Fc1ccc(-c2nc3n(c2-c2ccncc2)CCS3)cc1 [6-(4'-Fluorophenyl)-5-(4-pyridyl)-2,3-dihydroimidzo-[2,1-b]thiazole]
- effect on CoA-IT activity (CoA-IT; at concentrations up to 100 μM): no effect

Compound: Cc1cc(C(C)(C)C)c(O)c(C(C)(C)C)c1 [BHT]
- effect on CoA-IT activity (CoA-IT; at concentrations up to 100 μM): no effect

Compound: CN(C)CCC=C1c2ccccc2COc2ccccc21 [Doxepine]
- effect on CoA-IT activity (CoA-IT; at concentrations up to 100 μM): did not inhibit

- IC50 (human monocytes; read-out: IC50 for LTC4 release): 300 nM
- IC50 (human monocytes; read-out: IC50 of PGE2 release): > 3000 nM
- inhibition of CoA-IT activity in the microsomal CoA-IT assay (CoA-IT): inhibit CoA-IT activity
Compound: O=C(Nc1ccc(Br)cc1)Nc1cc(C(F)(F)F)ccc1Oc1ccccc1C(=O)O [Example 1, 2-[2-[3-(4-Bromophenyl)ureido]-4-(trifluoromethyl)phenoxy]benzoic acid]

- inhibition of CoA-IT activity in the microsomal CoA-IT assay (CoA-IT): inhibit CoA-IT activity
Compound: CC(C)(C)CC(C)(C)c1ccc(Oc2ccc(C(F)(F)F)cc2NC(=O)Nc2cc(C(F)(F)F)cc(C(F)(F)F)c2)c(C(=O)O)c1 [Example 4, 2-[2-[3-[3,5-Bis (trifluoromethyl)phenyl]ureido]-4-trifluoromethylphenoxy]-5-(1,1,3,3-tetramethylbutyl)benzoic acid]

- inhibition of CoA-IT activity in the microsomal CoA-IT assay (CoA-IT): inhibit CoA-IT activity
Compound: CCC(C)(C)c1ccc(Oc2ccc(C(F)(F)F)cc2NC(=O)Nc2cc(C(F)(F)F)cc(C(F)(F)F)c2)c(C(=O)O)c1 [Example 5, 2-[2-[3-[3,5-Bis (trifluoromethyl)phenyl]ureido]-4-trifluoromethylphenoxy]-5-(1,1,-dimethylpropyl)benzoic acid]

- inhibition of CoA-IT activity in the microsomal CoA-IT assay (CoA-IT): inhibit CoA-IT activity
Compound: COC(=O)c1ccccc1Oc1ccc(C(F)(F)F)cc1NC(=O)Nc1cc(C(F)(F)F)cc(C(F)(F)F)c1 [Example 8, Methyl 2-[2-[3-[3,5-Bis(trifluoromethyl)phenyl]ureido]-4-trifluoromethylphenoxy]benzoate]

Compound: C[C@H](C(=O)O)c1ccc2cc(OCc3ccc4ccccc4n3)ccc2c1 [WY 50,295]
- AA % change in edema [1]: -50%
- change in MPO for AA [1]: -90
- TPA % change in edema [2]: -18%

Compound: COc1cccc2c1cc([N+](=O)[O-])c1c(C(=O)O)cc3c(c12)OCO3 [aristolochic acid]
- effect on CoA-IT activity (CoA-IT; at concentrations up to 500 μM): no effect

Compound: C[C@@H]1C[C@H]2[C@@H]3CCC4=CC(=O)C=C[C@]4(C)[C@@]3(F)[C@@H](O)C[C@]2(C)[C@@]1(O)C(=O)CO [dexamethasone]
- AA % change in edema [1]: -10%
- change in MPO for AA [1]: 0
- TPA % change in edema [2]: -50%
- change in MPO for TPA model [2]: -54

Compound: COc1ccc2c(c1)c(CC(=O)O)c(C)n2C(=O)c1ccc(Cl)cc1 [indomethicin]
- effect on CoA-IT activity (CoA-IT; at concentrations up to 100 μM): no effect

Compound: COc1ccc2cc([C@H](C)C(=O)O)ccc2c1 [naproxen]
- effect on CoA-IT activity (CoA-IT; at concentrations up to 100 μM): no effect

Compound: CCN(CC)CCCC(C)Nc1c2ccc(Cl)cc2nc2ccc(OC)cc12 (centres unmarked) [quinacrine]
- effect on CoA-IT activity (CoA-IT; at concentrations up to 500 μM): no effect

Compound: CC(=O)O[C@H]1C[C@@H]2[C@@]3(C)CCCC(C)(C)[C@@H]3CC[C@@]2(C)[C@@H]2CC=C(C=O)[C@H](C=O)[C@@]12C [scalaradial]
- AA % change in edema [1]: -11%
